Values of other authors as cited in US8163752B2, “Tricyclic anilide heterocyclic CGRP receptor antagonists” (Merck, Sharp & Dohme Corp., priority 2007, dated 2012).
No end group written: not given here.

Legend:
middle meningeal artery = conditions: rats, electrical stimulation of the dura mater, prior administration (Williamson et al. 1997)
facial blood flow [1] = conditions: rat, trigeminal ganglion stimulation (Escott et al. 1995)
[2] = tested on: acute attacks of migraine; conditions: clinical trials (Olesen et al. 2004)
[3] = tested on: headache induced by CGRP infusion; conditions: control group (Petersen et al. 2005)
facial blood flow [4] = conditions: marmoset, electrical stimulation of the trigeminal ganglion (Doods et al. 2000)

| Compound | effect on increase of middle meningeal artery diameter (middle meningeal artery) | effect on increased facial blood flow (facial blood flow [1]) | efficacy in treating acute attacks of migraine [2] | prevention of headache induced by CGRP infusion [3] | effect on increase in facial blood flow (facial blood flow [4]) |
| --- | --- | --- | --- | --- | --- |
| CGRP(8-37): a peptide CGRP antagonist; fragment of CGRP that lacks seven N-terminal amino acid residues (VTHRLAGLLSRSGGVVKNNFVPTNVGSKAF; ends and bridges not checked; UniProt P06881 90-119, looked up, fragment) | blocked | inhibited | – | – | – |
| NCCCC[C@H](NC(=O)[C@@H](Cc1cc(Br)c(O)c(Br)c1)NC(=O)N1CCC(N2Cc3ccccc3NC2=O)CC1)C(=O)N1CCN(c2ccncc2)CC1 [BIBN4096BS] | – | – | effective in treating acute attacks of migraine | able to prevent headache induced by CGRP infusion | could be blocked |
